Measurements: patent US12171756B2, “NLRP3 modulators” (Innate Tumor Immunity, Inc., priority 2017, dated 2024)
pEC50, pIC50: −log10 of the molar value.

Columns and labels:
human TLR8 = molecular target: T1, human TLR8 (Homo sapiens, UniProt Q9NR97); experiment: In vitro human TLR8 binding reporter assay (HEK-Blue, NF-kB/AP1-inducible SEAP); assay type: cell-based; conditions: HEK-Blue human TLR8 SEAP reporter cells; activity range classes; read-out: TLR8 Agonist EC50
T1 construct: host or cells: human HEK-Blue cells (HEK293-derived) co-expressing TLR8 and an NF-kB/AP1-inducible SEAP reporter
T1 sequence (Q9NR97 27-1041): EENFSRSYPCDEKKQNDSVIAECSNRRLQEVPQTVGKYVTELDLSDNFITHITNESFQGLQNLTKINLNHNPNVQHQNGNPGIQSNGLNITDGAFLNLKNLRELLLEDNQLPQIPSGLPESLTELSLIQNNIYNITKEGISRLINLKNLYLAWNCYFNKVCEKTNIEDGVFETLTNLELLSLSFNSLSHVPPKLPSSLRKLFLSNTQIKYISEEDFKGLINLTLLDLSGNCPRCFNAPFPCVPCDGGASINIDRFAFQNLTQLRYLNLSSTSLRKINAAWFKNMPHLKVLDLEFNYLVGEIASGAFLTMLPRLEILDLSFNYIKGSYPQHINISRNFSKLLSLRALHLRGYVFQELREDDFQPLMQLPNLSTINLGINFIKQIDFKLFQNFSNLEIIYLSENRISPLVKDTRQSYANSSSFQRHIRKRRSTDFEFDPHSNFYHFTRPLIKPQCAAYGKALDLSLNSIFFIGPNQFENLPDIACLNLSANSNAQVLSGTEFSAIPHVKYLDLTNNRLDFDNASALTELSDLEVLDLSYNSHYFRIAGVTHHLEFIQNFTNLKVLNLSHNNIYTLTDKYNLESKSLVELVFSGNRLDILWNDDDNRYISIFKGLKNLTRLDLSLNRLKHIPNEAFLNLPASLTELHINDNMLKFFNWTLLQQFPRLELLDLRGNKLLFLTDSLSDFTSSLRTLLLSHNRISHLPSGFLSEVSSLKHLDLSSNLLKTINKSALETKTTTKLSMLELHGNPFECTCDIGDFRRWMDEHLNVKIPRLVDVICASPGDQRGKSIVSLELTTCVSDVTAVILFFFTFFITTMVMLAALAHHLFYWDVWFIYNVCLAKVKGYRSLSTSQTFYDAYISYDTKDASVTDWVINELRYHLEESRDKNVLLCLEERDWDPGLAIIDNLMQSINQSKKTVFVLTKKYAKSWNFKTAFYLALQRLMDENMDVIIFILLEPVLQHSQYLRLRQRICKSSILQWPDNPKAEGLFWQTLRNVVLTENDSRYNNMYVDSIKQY
Outline: (§1)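 EC50s come from NF-kB/AP1-driven SEAP secretion in HEK-Blue cells expressing TLR7 or TLR8, measured with Quanti-Blue after an 18 h compound incubation. Maximal response is defined by a 50 μM reference standard.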

human TLR7 = molecular target: T2, human TLR7 (Homo sapiens, UniProt Q9NYK1); experiment: In vitro human TLR7 binding reporter assay (HEK-Blue, NF-kB/AP1-inducible SEAP); assay type: cell-based; conditions: HEK-Blue human TLR7 SEAP reporter cells; activity range classes; read-out: TLR7 Agonist EC50
T2 construct: host or cells: human HEK-Blue cells (HEK293-derived) co-expressing TLR7 and an NF-kB/AP1-inducible SEAP reporter
T2 sequence (Q9NYK1 27-1049): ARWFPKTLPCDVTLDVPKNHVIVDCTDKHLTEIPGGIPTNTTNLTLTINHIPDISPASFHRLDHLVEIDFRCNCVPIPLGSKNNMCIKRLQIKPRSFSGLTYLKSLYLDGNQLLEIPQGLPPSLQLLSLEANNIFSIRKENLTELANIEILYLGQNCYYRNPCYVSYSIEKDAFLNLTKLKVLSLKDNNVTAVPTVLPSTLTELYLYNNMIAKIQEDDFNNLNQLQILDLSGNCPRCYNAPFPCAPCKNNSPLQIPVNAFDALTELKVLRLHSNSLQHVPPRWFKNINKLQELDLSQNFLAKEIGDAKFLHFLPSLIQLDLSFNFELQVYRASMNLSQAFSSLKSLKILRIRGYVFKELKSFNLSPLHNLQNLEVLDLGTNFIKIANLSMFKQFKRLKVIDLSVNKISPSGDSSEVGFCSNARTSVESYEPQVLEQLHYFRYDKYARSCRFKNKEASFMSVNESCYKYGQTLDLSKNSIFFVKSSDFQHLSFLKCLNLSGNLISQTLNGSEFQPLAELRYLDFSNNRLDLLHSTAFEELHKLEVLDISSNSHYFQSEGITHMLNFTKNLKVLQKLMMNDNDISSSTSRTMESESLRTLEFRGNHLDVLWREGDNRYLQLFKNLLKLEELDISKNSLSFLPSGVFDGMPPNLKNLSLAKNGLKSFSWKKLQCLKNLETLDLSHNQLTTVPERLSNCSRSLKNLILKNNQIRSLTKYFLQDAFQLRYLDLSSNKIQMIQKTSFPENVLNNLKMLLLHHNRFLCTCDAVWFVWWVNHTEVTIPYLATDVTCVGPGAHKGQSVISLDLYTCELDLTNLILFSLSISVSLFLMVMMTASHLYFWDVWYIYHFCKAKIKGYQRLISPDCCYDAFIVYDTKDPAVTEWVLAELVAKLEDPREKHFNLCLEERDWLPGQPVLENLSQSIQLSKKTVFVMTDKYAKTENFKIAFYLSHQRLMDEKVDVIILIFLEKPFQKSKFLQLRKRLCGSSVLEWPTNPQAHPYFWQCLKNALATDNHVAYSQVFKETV
Outline: as §1

[1] = tested on: IL-1β production in PMA-differentiated THP-1 cells; experiment: Measurement of IL-1β production in PMA-differentiated THP-1 cells (ELISA, 4 hours); assay type: cell-based, human; conditions: Homo sapiens, THP-1, human IL-1β production, assayed using one or more of the described procedures, read-out: NLRP3 hIL1B IC50
Outline: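 IL-1β released into supernatant was measured by ELISA after a 4-hour compound exposure (final DMSO 1%, concentrations such as 100 down to 0.1 μM). Cells: THP-1 pretreated 24 h with 10 μg/ml PMA, then trypsinized and seeded at 1×10^6/ml in 2% FBS RPMI.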

Structure (SMILES)	pEC50 (human TLR8)	pEC50 (human TLR7)	pIC50 [1]
Nc1nc2cc(-c3ccn[nH]3)ccc2cc1CCCN1CCCCC1 [Compound 114]	< 4.00	< 4.00	5.37
Nc1cc(NCc2ncc[nH]2)c2ccc(-c3ccn[nH]3)cc2n1 [Compound 240]	< 4.00	< 4.00	6.62
CCCOc1cc(N)nc2cc(-c3ccn[nH]3)ccc12 [Compound 182]	< 4.00	< 4.00	5.94

Second part, the molecule after the results:

pEC50 (human TLR8)	pEC50 (human TLR7)	pIC50 [1]	Structure (SMILES)
< 4.00	< 4.00	6.00	CC(C)(O)CCNc1cc(N)nc2cc(-n3cccn3)ccc12 [Compound 301]
< 4.00	< 4.00	5.99	Cn1cnc(CNc2cc(N)nc3cc(-c4ccn[nH]4)ccc23)c1 [Compound 243]
< 4.00	< 4.00	6.68	Nc1cc(NCc2nc[nH]n2)c2ccc(-n3cccn3)cc2n1 [Compound 294]
